In paper PMC8826350, “Structural feature-driven pattern analysis for multitarget modulator landscapes” (Bioinformatics, 2021):

Legend:
ABCG2 [1] = target: T1, ABCG2 (Homo sapiens, UniProt Q9UNQ0); assay: Pheophorbide A assay (flow cytometry), ABCG2-overexpressing MDCK II BCRP cells; assay type: cell-based; design: host or cells: MDCK II; conditions: curve top constrained to reference 8, read-out: IC50±SEM ABCG2 Pheophorbide A
T1 sequence (Q9UNQ0 1-655): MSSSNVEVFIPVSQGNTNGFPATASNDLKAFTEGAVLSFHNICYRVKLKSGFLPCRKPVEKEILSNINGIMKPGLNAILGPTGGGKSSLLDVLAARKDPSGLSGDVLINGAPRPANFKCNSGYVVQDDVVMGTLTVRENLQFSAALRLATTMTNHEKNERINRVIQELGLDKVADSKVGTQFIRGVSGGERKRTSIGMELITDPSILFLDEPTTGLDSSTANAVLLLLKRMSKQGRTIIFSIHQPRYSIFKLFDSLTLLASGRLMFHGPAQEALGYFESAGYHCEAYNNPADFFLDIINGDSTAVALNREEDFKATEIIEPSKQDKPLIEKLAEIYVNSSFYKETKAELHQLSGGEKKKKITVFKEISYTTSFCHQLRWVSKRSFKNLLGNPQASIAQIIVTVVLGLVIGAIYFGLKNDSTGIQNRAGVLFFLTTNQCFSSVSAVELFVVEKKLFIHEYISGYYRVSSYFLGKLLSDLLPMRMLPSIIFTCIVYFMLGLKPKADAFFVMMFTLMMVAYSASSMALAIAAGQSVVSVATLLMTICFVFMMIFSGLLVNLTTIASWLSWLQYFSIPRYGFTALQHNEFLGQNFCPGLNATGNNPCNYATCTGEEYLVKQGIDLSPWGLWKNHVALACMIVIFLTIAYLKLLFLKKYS

ABCB1 [2] = target: T2, ABCB1 (Homo sapiens, UniProt P08183); assay: Calcein AM assay (plate reader), ABCB1-overexpressing A2780/ADR cells
ABCC1 [3] = target: T3, ABCC1 (Homo sapiens, UniProt P33527); assay: Calcein AM assay (plate reader), ABCC1-overexpressing H69AR cells; conditions: for IC50±SEM ABCC1 Calcein AM: H69AR cells, curve top constrained to reference 7; for mode of modulation of ABCC1 (in words): initial screening at 10 µM, calcein AM assay
ABCG2 [4] = target: T1, ABCG2; assay: Hoechst 33342 assay (plate reader), MDCK II BCRP cells
Protocol: The fluorescence accumulation at an excitation wavelength of 360 nm and an emission wavelength of 460 nm was measured over a period of 120 min in 60 s intervals using a Paradigm microplate reader [Beckman Coulter (Brea, CA, USA)]. The average steady-state fluorescence value was calculated for each well and correlated to the used compound concentration.

ABCC1 [5] = target: T3, ABCC1; assay: Daunorubicin accumulation assay (flow cytometry), H69AR cells
ABCB1 [6] = target: T2, ABCB1; assay: Daunorubicin accumulation assay (flow cytometry), A2780/ADR cells

T2 sequence (P08183 whole entry): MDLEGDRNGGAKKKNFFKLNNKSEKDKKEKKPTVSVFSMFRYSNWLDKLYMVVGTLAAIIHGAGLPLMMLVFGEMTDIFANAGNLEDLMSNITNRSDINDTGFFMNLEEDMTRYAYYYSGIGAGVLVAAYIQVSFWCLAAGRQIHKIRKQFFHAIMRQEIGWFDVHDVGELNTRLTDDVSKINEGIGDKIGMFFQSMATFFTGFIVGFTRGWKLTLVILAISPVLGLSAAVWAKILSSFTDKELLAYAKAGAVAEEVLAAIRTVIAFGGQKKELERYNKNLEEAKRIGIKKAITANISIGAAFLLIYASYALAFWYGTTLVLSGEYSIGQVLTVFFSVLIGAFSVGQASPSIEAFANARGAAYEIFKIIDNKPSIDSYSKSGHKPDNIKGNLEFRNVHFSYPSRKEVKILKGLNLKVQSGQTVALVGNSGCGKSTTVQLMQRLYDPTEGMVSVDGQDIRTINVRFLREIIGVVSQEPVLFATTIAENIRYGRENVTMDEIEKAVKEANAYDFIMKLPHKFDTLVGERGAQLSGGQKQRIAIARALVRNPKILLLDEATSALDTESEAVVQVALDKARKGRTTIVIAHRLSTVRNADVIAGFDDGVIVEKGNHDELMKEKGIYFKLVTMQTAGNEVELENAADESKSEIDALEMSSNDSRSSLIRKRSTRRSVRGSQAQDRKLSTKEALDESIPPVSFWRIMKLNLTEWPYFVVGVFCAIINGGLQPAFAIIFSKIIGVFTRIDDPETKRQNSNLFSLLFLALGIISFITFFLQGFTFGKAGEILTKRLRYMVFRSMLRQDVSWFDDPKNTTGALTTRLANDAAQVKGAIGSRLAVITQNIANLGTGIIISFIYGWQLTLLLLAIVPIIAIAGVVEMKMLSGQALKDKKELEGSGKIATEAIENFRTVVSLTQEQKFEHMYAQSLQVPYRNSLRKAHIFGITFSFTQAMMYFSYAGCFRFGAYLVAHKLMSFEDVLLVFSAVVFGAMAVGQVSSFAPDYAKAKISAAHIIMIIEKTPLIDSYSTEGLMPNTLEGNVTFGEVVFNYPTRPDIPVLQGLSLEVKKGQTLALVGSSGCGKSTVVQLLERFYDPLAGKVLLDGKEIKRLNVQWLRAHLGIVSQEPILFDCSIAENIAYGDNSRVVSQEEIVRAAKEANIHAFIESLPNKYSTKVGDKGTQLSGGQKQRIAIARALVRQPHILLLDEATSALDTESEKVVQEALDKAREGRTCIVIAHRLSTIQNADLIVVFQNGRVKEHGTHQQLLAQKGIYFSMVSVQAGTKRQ
T3 sequence (P33527 whole entry): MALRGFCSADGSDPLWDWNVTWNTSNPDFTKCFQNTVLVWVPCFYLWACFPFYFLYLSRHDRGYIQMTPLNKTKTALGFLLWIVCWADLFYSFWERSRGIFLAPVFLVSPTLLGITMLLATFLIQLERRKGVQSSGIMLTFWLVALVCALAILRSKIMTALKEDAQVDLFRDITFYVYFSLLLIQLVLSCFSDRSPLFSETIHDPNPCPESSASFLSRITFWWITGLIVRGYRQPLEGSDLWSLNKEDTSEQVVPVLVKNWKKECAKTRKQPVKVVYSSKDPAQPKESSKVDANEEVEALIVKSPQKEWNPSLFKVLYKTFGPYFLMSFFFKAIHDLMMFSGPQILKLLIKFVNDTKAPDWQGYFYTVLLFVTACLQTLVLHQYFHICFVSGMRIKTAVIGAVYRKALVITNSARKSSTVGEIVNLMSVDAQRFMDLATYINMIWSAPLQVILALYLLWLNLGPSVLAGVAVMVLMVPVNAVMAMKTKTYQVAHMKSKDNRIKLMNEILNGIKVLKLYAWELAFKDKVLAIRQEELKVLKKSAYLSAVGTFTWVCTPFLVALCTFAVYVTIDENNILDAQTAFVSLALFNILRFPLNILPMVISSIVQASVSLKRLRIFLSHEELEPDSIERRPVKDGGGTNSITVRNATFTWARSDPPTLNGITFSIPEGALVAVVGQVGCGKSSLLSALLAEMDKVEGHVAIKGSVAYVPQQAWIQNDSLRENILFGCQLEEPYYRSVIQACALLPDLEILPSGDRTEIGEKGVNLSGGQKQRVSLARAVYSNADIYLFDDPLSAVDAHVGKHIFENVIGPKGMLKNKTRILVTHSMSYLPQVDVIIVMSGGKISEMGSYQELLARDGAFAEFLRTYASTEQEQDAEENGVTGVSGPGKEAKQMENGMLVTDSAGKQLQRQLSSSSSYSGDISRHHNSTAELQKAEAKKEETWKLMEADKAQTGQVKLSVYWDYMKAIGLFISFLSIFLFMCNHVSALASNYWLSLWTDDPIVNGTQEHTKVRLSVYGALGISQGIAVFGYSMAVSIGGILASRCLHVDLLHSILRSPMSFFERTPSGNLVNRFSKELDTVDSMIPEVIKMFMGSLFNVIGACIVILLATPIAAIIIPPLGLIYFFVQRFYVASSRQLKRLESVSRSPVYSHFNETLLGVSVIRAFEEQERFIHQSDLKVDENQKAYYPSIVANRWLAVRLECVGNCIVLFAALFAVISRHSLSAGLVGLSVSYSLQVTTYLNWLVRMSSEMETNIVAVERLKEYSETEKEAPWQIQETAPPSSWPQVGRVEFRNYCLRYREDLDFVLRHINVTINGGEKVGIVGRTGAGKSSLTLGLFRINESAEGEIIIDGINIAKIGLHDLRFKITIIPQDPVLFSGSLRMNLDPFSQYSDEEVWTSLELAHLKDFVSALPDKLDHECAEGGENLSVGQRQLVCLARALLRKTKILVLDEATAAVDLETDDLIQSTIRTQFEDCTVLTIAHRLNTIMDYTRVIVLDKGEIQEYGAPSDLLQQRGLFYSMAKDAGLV

Structure (SMILES) | IC50 (ABCG2 [1]) [µM] | IC50 (ABCB1 [2]) [µM] | IC50±SEM ABCC1 Calcein AM (ABCC1 [3]) | IC50 (ABCG2 [4]) [µM] | IC50 (ABCC1 [5]) [µM] | IC50 (ABCB1 [6]) [µM] | IC50 (ABCC1 [3]) [µM] | mode of modulation of ABCC1 (in words) (ABCC1 [3])
O=C(C1c2ccccc2Oc2ccccc21)N1CCN(Cc2nnnn2-c2ccc(F)cc2)CC1 [Compound 4] | 15.1 ± 1.2 | 15.5 ± 1.3 | n.i. | – | – | – | – | –
COc1ccc(OCc2noc(CN3CCN(C(=O)C45CC6CC(CC(C6)C4)C5)CC3)n2)cc1 [Compound 5] | 12.4 ± 1.3 | 25.6 ± 1.1 | – | 28.5 ± 6.1 | 57 ± 6.5 | 80.2 ± 30.1 | 60.9 ± 14 | –
Cn1c(=O)n(C)c2cc(S(=O)(=O)N3CCN(C(c4ccccc4)c4ccccc4)CC3)ccc21 [Compound 2] | 25.8 ± 12.1 | 8.26 ± 0.54 | n.i. | – | – | – | – | apparent slight activation of ABCC1
Cc1ccccc1Cn1c(N2CCN(CCc3ccccc3)CC2)nc2c1c(=O)[nH]c(=O)n2C [Compound 1] | 7.89 ± 0.44 | 22.7 ± 5.4 | n.i. | – | – | – | – | apparent slight activation of ABCC1
Cc1onc(-c2ccccc2Cl)c1C(=O)N1CCN(Cc2nnnn2-c2ccc(F)cc2)CC1 [Compound 3] | 15.9 ± 1.1 | – | – | 37.9 ± 12.5 | 38.7 ± 15.2 | – | 38.6 ± 2.2 | –
